This is an account of results in patent US5369126A, “Nonatetraenoic acid derivative for use in treating acne” (Hoffmann-La Roche Inc., priority 1993, dated 1994).

Molecules are shown by their SMILES. Where two headings read alike, the source gives them in different places.

Data set [1] deals with human sebaceous cells (sebocytes). The data set is described as follows: Inhibition of human sebocyte proliferation in vitro. The following applies: read-out: ED50, inhibition of human sebocyte proliferation in vitro. It is filed as cell-based. How it is done:
The cells are cultured in Iscove's medium containing 10% fetal calf serum and 4 μg/ml dexamethasone.
Cells are plated in medium without the test compound and then given test compound in fresh medium 24-48 hours after the initial plating. The cultures are given fresh medium containing the test compound, every 48 hours. On the day of harvesting, the cultures are rinsed with 0.03% EDTA in PBS to remove only the 3T3 fibroblasts, followed by incubation in 0.05% trypsin/0.03% EDTA. The cells are suspended, mixed vigorously to prepare a single cell suspension and counted in a hemocytometer.
All test compounds are handled in the following manner. Stock solutions are made up as 10^-2 M solutions in DMSO and stored at -20° C. in the dark. Solutions are never used after one month of storage. During experimental use, the solutions, which have been aliquoted, are brought to room temperature and used by diluting directly into complete medium to the appropriate concentration.

In data set [2] the test system is hamster ear sebaceous glands. The data set is described as follows: Hamster ear sebaceous gland assay, oral dosing. It is filed as in vivo, Golden Syrian hamster (male). The following applies: 4 weeks. The method, then:
Charles River Golden Syrian male hamsters, weighing between 150 to 160 grams, were housed for one month after receipt before dosing with compounds. […] Fresh solutions were made up weekly.
Hamsters were given 0.2 ml of drug solution via oral intubation. Animals were dosed daily for five days, rested for two days, and dosed again for five days until 20 doses were given. Hamsters were weighed at the beginning and end of the dosing regimen.
Hamsters were sacrificed by CO2 inhalation, and the ears removed for histological evaluation. One ear was fixed with 10% buffered formalin, processed for paraffin embedding, sectioned, and stained with hematoxylin and eosin (H&E). The area of sebaceous glands in cross-sections of hamster ears was examined by image analysis using a Leitz TAS Plus system.
Data is given as the average area of 30-40 sebaceous glands as percent of the control (solvent-treated) sections.

Data set [3] has as its system rhino mouse utricles. The data set can be described thus: Rhino mouse utricle assay, topical dosing. It is filed as in vivo. The following applies: 3 weeks, vs solvent-treated control. How it is done:
(§1) Male and female rhino mice were weighed prior to the start of an experiment. For topical studies, test compounds are dissolved in 100% acetone and 100 μl applied to the dorsa of the mice five times a week, once daily, for three weeks. For oral studies, test compounds were dissolved in 100% propylene glycol and 100 μl given by oral intubation 5 times a week, once daily, for three weeks. Final body weights were recorded at the time of sacrifice, done by CO2 inhalation. A flap of skin from the dorsa was cut out and processed by histological methods to produce a whole mount of the tissue. Utricle size was measured by image analysis using either the Leitz TAS Plus system or the Ultimage system on a modified MACINTOSH computer. Data is given as the % change from solvent-treated control tissue (Tables 3 and 4).

For data set [4], the system named is rhino mouse utricles. The data set can be described thus: Rhino mouse utricle assay, oral dosing. It counts as in vivo. The following applies: 3 weeks, vs solvent-treated control. How it is done:
as §1

The next data set concerns human sebaceous glands. The following applies: Landthaler et al., 1980; cited from earlier work.
The test system of the next data set is acne. The following applies: Farrell 1980; Hammerstein 1975; Lyons 1982; Weissman 1985; cited from earlier work.
The conditions of data set [5]: in vivo; cited from earlier work.
Data set [6] concerns Syrian hamster ear sebaceous gland. The following applies: Plewig et al., 1981; cited from earlier work.
Data set [7] in a line: Toxicity observed in the acne models of Examples 2-4. It is filed as in vivo. How it is done:
The compound of the invention was tested as described in Examples 2-4, below, in several acne models.

Setting [8] is: Experiment 2, oral 0.5 mg/kg, vs solvent-treated control.
The mark [9] stands for this setting: Experiment 2, oral 2.5 mg/kg, vs solvent-treated control.
The mark [10] stands for this setting: Experiment 2, oral 5 mg/kg, vs solvent-treated control.
[11] abbreviates: Experiment 2, oral 10 mg/kg, vs solvent-treated control.
Setting [12] is: Experiment 1, topical 0.01 % solution in acetone.
The mark [13] stands for this setting: Experiment 1, topical 0.1 % solution in acetone.
Where [14] appears, read: Experiment 2, topical 0.001 % solution in acetone.
Setting [15] is: Experiment 2, topical 0.01 % solution in acetone.
The mark [16] stands for this setting: Experiment 2, topical 0.1 % solution in acetone.
The mark [17] stands for this setting: oral 0.25 mg/kg in propylene glycol.
[18] abbreviates: oral 1.25 mg/kg in propylene glycol.
Where [19] appears, read: oral 5 mg/kg in propylene glycol.

For `CC1=C(/C=C/C(C)=C/C=C/C(C)=C\C(=O)O)C(C)(C)CCC1` [13-cis retinoic acid, reference compound], the IC50 in data set [1] stood at 50 nM. Besides, the “% Decrease, hamster ear sebaceous gland size” value in data set [2] (setting [8]) is reported as -13%; in [2] (setting [9]), -24%; in data set [2] (setting [10]), -34%; in data set [2] (setting [11]), -30%. Further, the “% Decrease, rhino mouse utricle size” value in the data set with rhino mouse utricles [3] (setting [12]) is -44%; with rhino mouse utricles [3] (setting [13]), -55%; in the data set with rhino mouse utricles [3] (setting [14]), -27%; in the data set with rhino mouse utricles [3] (setting [15]), -58%; in the data set with rhino mouse utricles [3] (setting [16]) it was -61%; in the data set with rhino mouse utricles [4] (setting [17]), -19%. Also, the “% Decrease, rhino mouse utricle size” value with rhino mouse utricles [4] (setting [18]) is -39%; in the data set with rhino mouse utricles [4] (setting [19]), -47%. Also, the “reduction of the size of human sebaceous glands” value in the data set with human sebaceous glands is “up to 90%”. For the same compound, the “effect on sebum production” value in the data set on acne is “reduce sebum production”. Besides, the “effect on severity of acne” value in the data set on acne is given as “reduce the severity of acne”. Also, in [5], the side effects entry was “deleterious side effects such as hypervitaminosis A”. Besides, the “sensitivity of Syrian hamster ear sebaceous gland” value in [6] is “sensitive”.
Turning to `CCCCCCCCCOc1c(C)cc(C)cc1/C=C/C(C)=C/C=C/C(C)=C/C(=O)O` [Compound I, (all-E)-3,7-dimethyl-9-[3,5-dimethyl-2-(nonyloxy)-phenyl]-2,4,6,8-nonatetraenoic acid], in data set [1] (amount necessary to inhibit proliferation by 50% vs diluent-treated control, tested at 10^-6 to 10^-9 M), the IC50 came to 10 nM. Also, the “% Decrease, hamster ear sebaceous gland size” value is given as -19% in data set [2] (Experiment 1, oral 0.5 mg/kg, vs solvent-treated control); -27% in data set [2] (Experiment 1, oral 1.5 mg/kg, vs solvent-treated control); -33% in [2] (Experiment 1, oral 5 mg/kg, vs solvent-treated control); -11% in [2] (setting [8]); -18% in [2] (setting [9]); -24% in data set [2] (setting [10]). Also, the “% Decrease, hamster ear sebaceous gland size” value in data set [2] (setting [11]) is -33%; in data set [2] (Experiment 3a, vehicle = Propylene Glycol, oral 0.5 mg/kg) it was -19%; in data set [2] (Experiment 3a, vehicle = Propylene Glycol, oral 1.6 mg/kg) it was -27%; in data set [2] (Experiment 3a, vehicle = Propylene Glycol, oral 6 mg/kg) it was -33%; in data set [2] (Experiment 3b, vehicle = Labrafil, oral 0.6 mg/kg), -18%; in [2] (Experiment 3b, vehicle = Labrafil, oral 1.6 mg/kg) it was -26%. Moreover, the “% Decrease, hamster ear sebaceous gland size” value in [2] (Experiment 3b, vehicle = Labrafil, oral 5 mg/kg) is -26%; in data set [2] (Experiment 3c, vehicle = Tween 80, oral 0.5 mg/kg), -13%; in data set [2] (Experiment 3c, vehicle = Tween 80, oral 1.4 mg/kg), -13%; in data set [2] (Experiment 3c, vehicle = Tween 80, oral 6 mg/kg), -22%. Further, the “% Decrease, rhino mouse utricle size” value in the data set on rhino mouse utricles [3] (setting [12]) is recorded as -10%; with rhino mouse utricles [3] (setting [13]), -42%; with rhino mouse utricles [3] (setting [14]) it was -1%; in the data set on rhino mouse utricles [3] (setting [15]), -11%; in the data set with rhino mouse utricles [3] (setting [16]) it was -30%; with rhino mouse utricles [4] (setting [17]), -23%. Besides, the “% Decrease, rhino mouse utricle size” value in the data set on rhino mouse utricles [4] (setting [18]) is on record as -23%; in the data set with rhino mouse utricles [4] (setting [19]), -28%. The “toxicity at all doses tested” value in [7] was “non-toxic at all doses tested”.
For `CC(=O)O[C@]1(C(C)=O)CC[C@H]2[C@@H]3C=C(Cl)C4=CC(=O)[C@@H]5C[C@@H]5[C@]4(C)[C@H]3CC[C@@]21C` [cyproterone acetate], in the data set on acne, the “effect on sebum production” value was “reduce sebum production” and the “effect on severity of acne” value is “reduce the severity of acne”.
With `CC(=O)S[C@@H]1CC2=CC(=O)CC[C@]2(C)[C@H]2CC[C@@]3(C)[C@@H](CC[C@@]34CCC(=O)O4)[C@H]12` [spironolactone], in the data set on acne, the “effect on sebum production” value is given as “reduce sebum production” and the “effect on severity of acne” value is “reduce the severity of acne”.
